“Also recorded” adds a separate entry of the source. Like-named read-outs stand apart in the source and are kept apart here.
Experiments:
A2780/T cells [1] = assay: Combination index, Chou-Talalay method (CalcuSyn); type: cell-based, human; conditions: Homo sapiens, read-out: Dose tangeretin at Fa 0.5 (ED50), CalcuSyn simulation, alone or in combination
Description: Combination index (CI) was calculated to quantitatively depict synergistic ([…], additive (CI=1), or antagonistic (CI>1) effect. With the use of CalcuSyn software v. 2.1 (Bio-soft), synergy is further refined as synergism (combination index=0.3-0.7), strong synergism (combination index=0.1-0.3), and very strong synergism (combination index<0.1).

A2780/T cells [2] = assay: Apoptosis by Annexin-V/PI double staining; type: cell-based, human
Description: After treatment, 1×10^6 cells were collected, washed and suspended in 100 μl of binding buffer (10 mM N-2-hydroxyethylpiperazine-N,-2-ethanesulfonic acid/NaOH, 140 mM NaCl, 2.5 mM CaCl2, pH 7.4). Apoptotic cells were identified by double supravital staining with 5 μl recombinant FITC (fluorescein isothiocyanate)-conjugated Annexin-V and 5 μl PI (50 μg/ml). The cells were stained for […] at room temperature in the dark, and analyzed by fluorescence-activated cell sorting cater-plus flow cytometry. Data acquisition and analysis were performed in BD FACS Aria with FlowJo software.

A2780/T cells [3] = assay: Cell cycle analysis by flow cytometry in A2780/T; type: cell-based, human; conditions: tangeretin 7.53 μM alone
Description: A2780/T cells were harvested after 24-hours, 48-hour, or 72-hour treatment and washed twice with ice-cold PBS. The cells were fixed and permeabilized with 70% ice-cold ethanol overnight at 4° C. or −20° C. for 2 h. After one additional wash in PBS, cells were stained with a staining solution containing PI ([…]) and RNase A (250 μg/ml) for […] at room temperature. They were then pelleted, washed and suspended in PBS to a final concentration of 1×10^6/ml and analyzed by flow cytometry (BD FACS Aria, BD Biosciences, San Jose, Calif.).

A2780/T cells [4] = assay: Intracellular accumulation of DOX and Flutax-2 in A2780/T; type: cell-based, human; conditions: 8 h, 7.53 μM tangeretin or 20 μM QND
Description: cells (5×10^6) were cultured on the cover glass (ISO LAB 20×20 mm). […] After treatment, cells were fixed in 4 wt % formaldehyde (Sigma-Aldrich). Nuclear DNA was stained with 1 μg/mL blue-fluorescent DAPI (1 mg/mL in H2O stock solution; Invitrogen D1306). One drop of fluorescent preservation solution (fluorsave reagent, CALBIOCHEM) was added before observation. Imaging was carried out for comparing the intracellular accumulation of DOX and flutax-2 with a Fluorescence Microscopy (Leica DM2500, Leica, Germany). […] Cells were detached, re-suspended in 500 μl of PBS after washed twice with cold PBS, and analyzed by flow cytometry (BD FACS Aria, BD Biosciences, San Jose, Calif.). Excitation and emission wavelengths (nm) used for DOX and flutax-2 were as follows: 480 to 585; and 496 to 524.

A2780 cells = assay: Intracellular accumulation of DOX and Flutax-2 in A2780; type: cell-based, human; conditions: parental A2780, 7.53 μM tangeretin, 8 h
Description: A2780 or A2780/T cells (5×10^6) were cultured on the cover glass (ISO LAB 20×20 mm). […] After treatment, cells were fixed in 4 wt % formaldehyde (Sigma-Aldrich). Nuclear DNA was stained with 1 μg/mL blue-fluorescent DAPI (1 mg/mL in H2O stock solution; Invitrogen D1306). One drop of fluorescent preservation solution (fluorsave reagent, CALBIOCHEM) was added before observation. Imaging was carried out for comparing the intracellular accumulation of DOX and flutax-2 with a Fluorescence Microscopy (Leica DM2500, Leica, Germany).
Cells were detached, re-suspended in 500 μl of PBS after washed twice with cold PBS, and analyzed by flow cytometry (BD FACS Aria, BD Biosciences, San Jose, Calif.). Excitation and emission wavelengths (nm) used for DOX and flutax-2 were as follows: 480 to 585; and 496 to 524. Quinidine (QND, 20 μM), a known ABCB1 inhibitor, was used as a positive control.

[5] = target: T1, recombinant human ABCB1 membranes (Homo sapiens, UniProt P08183); assay: ABCB1 ATPase activity assay (Pgp-Glo); type: biochemical
T1 construct: purchased Promega
Description: Sodium orthovanadate (Na3VO4) was used as an ABCB1 ATPase inhibitor. […] Luminescence was initiated by ATP detection buffer. The plate (white opaque 96-well, corning, USA) was further incubated at room temperature for […] to develop luminescent signal, and was read with luminometer (infinite M200 PRO,TECAN, Switzerland).

[6] = system: MDR1 mRNA / ABCB1 protein in A2780/T cells; assay: RT-PCR and Western blot of ABCB1 expression; type: cell-based, human; conditions: tangeretin 0.83-7.53 μM, 48 hours
Description: RT-PCR was performed to evaluate MDR1 mRNA expression. mRNA from cell lysates were purified by binding to poly(dT) magnetic beads (Life technologies) and reverse transcribed by using SuperScript II (Life technologies). Standard quantitative RT-PCR was performed in duplicates at least two to three times by using SYBR Green (Molecular Probes) protocols on the ViiA™ 7 Real-Time PCR System (Life technologies). The primer sequences: 5′-[…]-3′ (SEQ ID […] NO:1) and 3′-[…]-5′ (SEQ ID NO:2) for MDR1, and 5′-[…]-3′ (SEQ ID NO:3) and 3′-[…]-[…]-5′ (SEQ ID NO:4) for control gene eukaryotic translation initiation factor (TIF). RT-PCR data was normalized by measuring average cycle threshold (Ct) ratios between candidate genes and control gene TIF.
The total cellular samples were harvested and rinsed twice with ice-cold PBS buffer. Cell extracts were lysed in RIPA buffer (50 mM Tris (pH 7.4), 150 mM NaCl, 1% Triton X-100, 1% sodium deoxycholate, 0.1% SDS, sodium orthovanadate, sodium fluoride and EDTA) containing protease inhibitor cocktails (Roche Life Science, USA). Protein concentration was determined using the BCA protein assay kit. Equal amounts of cell lysates were resolved by SDS-PAGE and subsequently electrophoretically transferred onto PVDF membranes (Millipore, Darmstadt, Germany). […]

p53 = assay: Western blot of p53 expression; type: cell-based, human; conditions: tangeretin at various concentrations, 48 hours, Western blot
Description: The total cellular samples were harvested and rinsed twice with ice-cold PBS buffer. Cell extracts were lysed in RIPA buffer (50 mM Tris (pH 7.4), 150 mM NaCl, 1% Triton X-100, 1% sodium deoxycholate, 0.1% SDS, sodium orthovanadate, sodium fluoride and EDTA) containing protease inhibitor cocktails (Roche Life Science, USA). Protein concentration was determined using the BCA protein assay kit. Equal amounts of cell lysates were resolved by SDS-PAGE and subsequently electrophoretically transferred onto PVDF membranes (Millipore, Darmstadt, Germany). After blocking in tris-buffered saline containing 0.1% of Tween20 (TBST) with 5% (w/v) skim milk (Nestle Carnation, New Zealand) for 2 h at room temperature, the membranes were incubated with primary and secondary antibodies and subsequently visualized with an enhanced chemiluminescence detection kit (Thermo Scientific™ SuperSignal™ West Pico Chemiluminescent Substrate, USA). β-Actin was used as the loading control for the experimental data analysis.

[7] = target: P-gp (ABCB1 transporter) in Caco-2 cells (Homo sapiens, UniProt P08183)
[8] = human, plasma; cited from earlier work
[9] = rat, plasma; cited from earlier work
in vitro [10] = conditions: human, A2780/T cells
Description: (§1) Sulphorhodamine B (SRB) assays were carried out as previously described to assess cell density, based on sensitive measure of total cellular protein, which performed similarly compared with other proliferation assays such as MTT assay. Briefly, cells were seeded into flat bottomed 96-well plates at an initial density of 7.5×10^3 per well before treatment. […] After removing the medium, cells were fixed in 10% trichloroacetic acid for 1 h at 4° C. and then washed with water five times. 0.4% SRB dissolved in 1% v/v acetic acid was added and incubated 30 mm for staining. The cells were quickly washed with 1% acetic acid and left to dry overnight. The protein bound SRB was solubilized by adding 200 μl 10 mM Tris buffer per well and measured at wavelengths 490 nm using a plate reader (Spectra MAX 250; Molecular Devices, Sunnyvale, Calif.).

in vitro [11] = conditions: human, A2780 cells
A2780/T cells [12] = assay: SRB cell cytotoxicity assay in A2780/T; conditions: tangeretin at 7.53 μM, all cell lines
Description: as §1

T1 sequence (P08183 whole entry): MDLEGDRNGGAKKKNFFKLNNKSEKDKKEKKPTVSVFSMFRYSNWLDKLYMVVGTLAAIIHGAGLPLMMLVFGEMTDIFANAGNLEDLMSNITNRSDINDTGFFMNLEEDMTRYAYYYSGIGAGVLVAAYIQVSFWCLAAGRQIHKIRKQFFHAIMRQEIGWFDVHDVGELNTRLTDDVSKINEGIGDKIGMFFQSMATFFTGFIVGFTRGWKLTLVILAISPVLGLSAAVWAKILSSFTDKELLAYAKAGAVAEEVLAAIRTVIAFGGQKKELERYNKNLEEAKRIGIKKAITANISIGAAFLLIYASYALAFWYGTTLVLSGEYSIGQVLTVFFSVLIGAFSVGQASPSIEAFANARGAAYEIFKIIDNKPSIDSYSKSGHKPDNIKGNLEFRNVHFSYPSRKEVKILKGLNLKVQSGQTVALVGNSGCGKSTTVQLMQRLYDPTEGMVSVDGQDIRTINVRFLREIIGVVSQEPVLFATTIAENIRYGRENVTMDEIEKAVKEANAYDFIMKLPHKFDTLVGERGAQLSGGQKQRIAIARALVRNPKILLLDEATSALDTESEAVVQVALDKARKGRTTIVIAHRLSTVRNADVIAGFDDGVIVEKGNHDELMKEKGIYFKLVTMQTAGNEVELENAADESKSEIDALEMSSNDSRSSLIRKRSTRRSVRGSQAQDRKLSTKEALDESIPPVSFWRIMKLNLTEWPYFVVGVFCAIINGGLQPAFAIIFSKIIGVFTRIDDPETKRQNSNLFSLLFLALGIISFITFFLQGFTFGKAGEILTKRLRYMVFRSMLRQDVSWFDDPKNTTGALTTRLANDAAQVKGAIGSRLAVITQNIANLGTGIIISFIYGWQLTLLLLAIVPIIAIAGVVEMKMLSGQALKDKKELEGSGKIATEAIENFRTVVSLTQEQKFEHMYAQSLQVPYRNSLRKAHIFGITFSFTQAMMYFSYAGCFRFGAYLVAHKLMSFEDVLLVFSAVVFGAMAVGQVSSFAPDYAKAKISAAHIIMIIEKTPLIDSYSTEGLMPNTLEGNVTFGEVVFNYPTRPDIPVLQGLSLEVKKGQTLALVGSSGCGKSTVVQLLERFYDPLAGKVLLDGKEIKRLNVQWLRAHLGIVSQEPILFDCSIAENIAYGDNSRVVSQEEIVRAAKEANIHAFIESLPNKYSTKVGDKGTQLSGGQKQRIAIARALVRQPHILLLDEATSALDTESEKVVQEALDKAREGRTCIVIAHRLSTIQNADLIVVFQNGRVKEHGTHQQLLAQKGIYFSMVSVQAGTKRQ
P-gp (ABCB1 transporter) in Caco-2 cells, sequence (P08183 whole entry): as above

## COc1ccc(-c2cc(=O)c3c(OC)c(OC)c(OC)c(OC)c3o2)cc1 [Tangeretin, 5,6,7,8,4′-pentamethoxyflavone]
A2780/T cells [1]
  EC50: 67.5 µM
A2780/T cells [2]; 7.53 μM tangeretin or 0.94 μM PTX alone
  apoptosis induction, single treatment: did not show apoptosis induction
A2780/T cells [2]; with 0.83, 2.51 and 7.53 μM tangeretin, A2780/T
  apoptosis induced by 0.94 μM PTX: significantly increase apoptosis
A2780/T cells [3]
  effect on the cell cycle: no effect
A2780/T cells [4]
  intracellular accumulations of DOX and Flutax-2: remarkably enhanced; also recorded: higher than that of untreated A2780/T
A2780 cells
  DOX and Flutax-2 levels: did not significantly alter; also recorded: no effect
[5]; 200 μM verapamil, read-out: IC50 for inhibiting verapamil-stimulated P-gp ATPase activity
  IC50: 7.87 µM
[5]; recombinant human ABCB1 membranes, 37° C., 40 min, read-out: EC50 for stimulating P-gp ATPase activity
  EC50: 11.6 µM
[5]; relative to the basal activity
  maximal stimulation of ATPase activity: 3 fold
[6]
  mRNA or protein level of ABCB1: did not influence
[6]; listed as tangeretin
  mRNA or protein level of ABCB1: did not alter
p53
  p53 expression: unregulated the p53 expression
[7]
  inhibitory effect on efflux compared with 20 μM QND: more potent than that of QND
[7]; human, 2 h, 2.51 μM
  inhibitory effect on efflux compared with 20 μM QND: stronger than that of 20 μM QND
[8]
  Cmax: 1 to 5 µM
[9]
  Cmax: 1 to 5 µM
In vitro [10]
  IC50: 36.4 µM
In vitro [11]
  IC50: 35.6 µM
A2780/T cells [12]
  cells survived: more than 90%
